Entries after “also recorded” stand apart in the source; their conditions may differ. Where two headings read alike, the source gives them in different places.
Columns and labels:
[1] = system: female mice, models of heart disease; conditions: cited from earlier work
male HFD+TAC mice [2] = test: Whole body metabolism (indirect calorimetry) in male HFD+TAC mice; format: in vivo, mouse
Protocol: (§1) All animals were fed a high fat diet (HFD) consisting of 60% kcal derived from fat was fed to both male and female C57BL6N mice for 3 months. Mice were divided into two groups: 1) Controls with intact ovaries; 2) Ovariectomized (Ovx) mice. Mice were assigned to receive trans-aortic constriction (TAC) or sham surgery after 3 months of HFD, and further randomized to placebo vehicle and PDE9-I (PDE9 inhibitor oral gavage 20 mg/kg twice daily) (FIG. 1). Comparison of Group 1 and 2 tests the efficacy of PDE9-I to ameliorate and/or reverse HFD and pressure-overload pathophysiology independent of sex hormone status.
(§2) Whole body metabolism: Indirect calorimetry was used to assess metabolic parameters in live animals using the OxyMAX Comprehensive Lab Animal Monitoring System (Columbus Instruments, Columbus Ohio). Basic metabolic rate (VO2 consumption), VCO2 release and energy expenditure (EE) were measured by indirect calorimetry in high-fat-fed OVX mice groups treated with (Drug) and without PDE9 inhibitor (Control). Respiratory exchange ratio (RER) was calculated from VCO2 release-to-VO2 consumption ratio (VCO2 release/VO2 consumption). CLAMS cabinet was used to measure oxygen consumption rate at 22° C. (VO2), CO2 emission, respiratory exchange ratio, heat production, food consumption (g consumed per day), and total and ambulatory activity per day.
(§3) In a third experiment, we exposed male mice of a similar starting age (5 weeks) to the same HFD protocol, and then same TAC protocol. As before, mice were randomized to either vehicle control or active PDE9-inhibitor starting 1 week after the TAC procedure. FIG. 11.

[3] = system: OVX+HFD+TAC female mice (C57BL/6N); test: Whole body metabolism by indirect calorimetry (CLAMS metabolic cage) in OVX+HFD+TAC female mice; format: in vivo, mouse; conditions: OVX+HFD+TAC females, vs vehicle; for oxygen consumption (VO2): normalized to body mass
Protocol: as §1, §2
(§4) Female mice (C57BL/6N) were placed on a 60% fat diet starting at age 5-weeks. Two weeks later, there were randomized to receive bilateral oophorectomy or sham surgery. Cardiac imaging for ventricular function and morphometry was determined 2 months later. Between 8-11 weeks after ovariectomy, the mice underwent a second surgical procedure introducing a mild aortic constriction (TAC) in the transverse aorta to increase pressure load on the heart. The purpose of the TAC procedure was to stimulate the heart to synthesize natriuretic peptide, which is important for the generation of cyclic GMP which PDE9 regulates. Serial echocardiograms were obtained, and starting 1 week after TAC, mice were further randomized to receive vehicle control or a PDE9 inhibitor (PF-7943). Intact mouse metabolic studies, fat/lean mass determinations, and heart function were assessed. At terminal study, tissues were harvested for molecular signaling.
RER is calculated from VCO2/VO2 ratio. […] Even if fat mass is assumed to contribute only 15% of total metabolic activity relative to lean mass, these differences remain significant (data not shown). […] P values are for unpaired t-tests between groups.

[4] = system: OVX+HFD+TAC female mice (C57BL/6N); test: Echocardiography of cardiac function and structure in OVX+HFD+TAC female mice; format: in vivo, mouse; conditions: OVX+HFD+TAC females, vs vehicle; for left ventricular hypertrophy (LV Mass) / ejection fraction (EF) / fractional shortening (FS): serial echo, drug started 1 week after TAC; for left ventricular hypertrophy (LV Mass): oral gavage 20 mg/kg twice daily, 20 mg/kg
Protocol: as §1
(§5) Changes in cardiac function and structure were measured using echocardiogram, histopathology and markers of cardiac stress (Nppa Gene expression by RT-qPCR). For qPCR, RNA is isolated from left ventricular myocardium (Trizol Reagent, Invitrogen), reverse transcribed to cDNA (High Capacity RNA-to-cDNA Kit, Applied Biosystems, Life Technologies), and undergoes PCR amplification using TaqMan probes for atrial natriuretic peptide (Nppa) (mouse #Mm01255747_g1, rat #Rn00664637_g1). The threshold cycle value was determined using the crossing point method, and samples normalized to the GAPDH for each run. Echocardiography was performed in conscious mice using serial M-mode transthoracic echocardiography (VisualSonics Vevo 2100, 18-38 MHz transducer; SanoSite Inc.). Images were obtained and analyzed by an individual blinded to the animal condition.
as §4

[5] = system: C57BL6/N female mice with intact ovaries, HFD+TAC; test: Whole body metabolism (indirect calorimetry) in HFD+TAC female mice with intact ovaries; format: in vivo, mouse; conditions: females with intact ovaries, HFD + pressure overload
Protocol: as §1, §2
(§6) In a second experiment, we examined the impact of PDE9 inhibition on female mice (C57BL6/N) subjected to HFD+TAC, but without ovariectomy and thus had normal estrogen levels.

male HFD+TAC mice [6] = test: Cardiac remodeling (echocardiography, Nppa RT-qPCR) in obese male HFD+TAC mice; format: in vivo, mouse; conditions: vs vehicle; for natriuretic peptide (Nppa) gene expression in myocardium: RT-qPCR; for cardiac hypertrophy (LV mass): drug started 1 week after TAC
Protocol: as §1, §5, §3

[7] = system: female mice, high fat diet induced obesity plus mild pressure stress; test: Cardiac disease in obese (HFD) female mice with mild pressure stress on the heart; format: in vivo, mouse; conditions: females; high fat diet induced obesity and metabolic syndrome + mild pressure stress on the heart
Source text: Our laboratory has studied the impact of PDE9 inhibition on the heart, in particular in male mice subjected to pressure overload stress to induced cardiac hypertrophy, dysfunction, and pathological fibrosis. Over the past 1.5 years, we have turned to females, and in particular added the impact of high fat diet induced obesity and metabolic syndrome. This is then combined with a mild pressure stress on the heart to stimulate production of natriuretic peptides and some hypertrophy of the heart muscle. […] However, there was minimal impact on peripheral body weight, metabolism, or fat mass in these studies.

[8] = system: OVX+HFD+TAC female mice (C57BL/6N); test: Fasting blood markers of metabolic syndrome and liver histology in OVX+HFD+TAC female mice; format: in vivo, mouse; conditions: for hepatic fat accumulation (liver histology): OVX females on HFD, vs no additional therapy; for fasting blood glucose / fasting blood total cholesterol / fasting total blood triglycerides: OVX+HFD+TAC females, end of study
Protocol: as §1, §4
Multiple biomarkers of metabolic syndrome and fat accumulation in the liver were improved in OVX+HFD+TAC female mice by PDE9 inhibition (FIG. 8). Data are shown at end-of study for fasting blood glucose, cholesterol, triglycerides, and histology of the liver.

[9] = system: C57BL6/N female mice with intact ovaries, HFD+TAC; test: Body weight and body composition in HFD+TAC female mice with intact ovaries; format: in vivo, mouse; conditions: females with intact ovaries, vs vehicle
Protocol: as §1
(§7) Body composition: total fat mass, lean mass, and water content was determined by quantitative nuclear magnetic resonance (Echo-MRI®). In brief, after 20 weeks on the HFD, total body fat and lean body mass were assessed non-invasively by EchoMRI instrument. The analyzer delivers precise body composition measurements of fat, lean, free water, and total water masses in live animals weighing up to 100 grams. Conscious mice were placed in a constraint tube that was then inserted into the EchoMRI for a period of approximately 30 s and these measurements obtained.
as §6

[10] = system: OVX+HFD+TAC female mice (C57BL/6N); test: Body weight and body composition (EchoMRI) in OVX+HFD+TAC female mice; format: in vivo, mouse; conditions: OVX+HFD+TAC females
Protocol: as §1, §7, §4
After 20 weeks on the HFD+ 8 wks mTAC, total body fat and lean body mass were assessed non-invasively by EchoMRI.

male HFD+TAC mice [11] = test: Body weight and body composition in male HFD+TAC mice; format: in vivo, mouse; conditions: listed as PDE9-inhibitor
Protocol: as §1, §7
In a third experiment, we exposed male mice of a similar starting age (5 weeks) to the same HFD protocol, and then same TAC protocol. […]

[12] = end of study, listed as PDE9 inhibitor

## CCCc1nn(C)c2c(=O)[nH]c(-c3cc(S(=O)(=O)N4CCN(C)CC4)ccc3OCC)nc12 [sildenafil]
[1]; female mice with ovaries, several models of heart disease
  treatment of heart disease: successfully treated
[1]; female mice, ovaries first removed
  treatment of heart disease: totally ineffective
[1]; female mice, ovaries removed, exogenous estrogen replacement
  treatment of heart disease: rescued

## C[C@@H]1CN(Cc2ncccn2)C[C@H]1c1nc2c(cnn2C2CCOCC2)c(=O)[nH]1 [PF 04447943]
Male HFD+TAC mice [2]
  CO2 generation: did not display consistent changes
  RER: did not display consistent changes
Male HFD+TAC mice [2]; listed as PDE9-inhibitor
  energy expenditure (heat generation): did not demonstrate increases; also recorded: did not display consistent changes
  oxygen consumption (metabolic rate): did not demonstrate increases; also recorded: did not display consistent changes
[3]; listed as PDE9I
  oxygen consumption (VO2): increases total oxygen consumption normalized to body mass
[3]; listed as PDE9 inhibitor
  oxygen consumption (VO2): increases in oxygen consumption
[3]; normalized to total body mass
  carbon dioxide generation (VCO2): increases
[3]
  calculated energy expenditure (heat): increased
  respiratory exchange ratio (RER): not significantly altered
[4]; end of study
  cardiac output: restoration towards normal control values
  ejection fraction: restoration towards normal control values
  ventricular end-diastolic volume (Volume, d): restoration towards normal control values
  ventricular end-systolic volume (Volume, s): restoration towards normal control values
[4]; [12]
  early to late atrial (E/A) filling: restored; also recorded: restoration towards normal control values
  isovolumic ventricular relaxation time (IVRT): restored; also recorded: restoration towards normal control values
[4]
  left ventricular hypertrophy (LV Mass): reduced left ventricular hypertrophy
  ejection fraction (EF): greater
  fractional shortening (FS): greater fractional shortening
[4]; listed as PDE9 inhibitor
  left ventricular hypertrophy (LV Mass): reduced LV mass
  ejection fraction (EF): improved FS and EF
  fractional shortening (FS): improved FS
[5]
  calculated energy expenditure: do not show any changes
[5]; listed as PDE9-I
  CO2 production: no difference
  overall oxygen consumption: no difference
  respiratory exchange ratio: no difference
[5]; listed as PDE9i
  CO2 production: do not show any changes
  overall oxygen consumption: do not show any changes
  respiratory exchange ratio: do not show any changes
Male HFD+TAC mice [6]; listed as PDE9-I
  natriuretic peptide (Nppa) gene expression in myocardium: reduced
Male HFD+TAC mice [6]; listed as PDE9-inhibitor
  natriuretic peptide (Nppa) gene expression in myocardium: reduced by active therapy
  cardiac hypertrophy (LV mass): reduced left heart mass
  ejection fraction: increases in both fractional shortening and ejection fraction
  fractional shortening: increases in both fractional shortening and ejection fraction
Male HFD+TAC mice [6]; listed as PDE9 inhibitor
  cardiac hypertrophy (LV mass): significantly lowers cardiac hypertrophy
  ejection fraction: improves cardiac function
  fractional shortening: improves cardiac function
[7]
  cardiac disease: can indeed ameliorate cardiac disease
[8]; listed as PDE9-I
  hepatic fat accumulation (liver histology): markedly reduced
  fasting blood glucose: reduced
  fasting blood total cholesterol: reduced
  fasting total blood triglycerides: reduced
[8]; listed as PDE9 inhibitor
  hepatic fat accumulation (liver histology): marked reduction of fat accumulation in the liver
  fasting blood glucose: reduced towards normal control levels
  fasting blood total cholesterol: reduced towards normal control levels
  fasting total blood triglycerides: reduced towards normal control levels
[9]; listed as PDE0-I
  fat mass: no significant change
  lean mass: no significant change
  percent fat mass: no significant change
  percent lean mass: no significant change
  total body weight: no significant change
[9]; listed as PDE9 inhibitor
  fat mass: did not have any alteration
  lean mass: did not have any alteration
  percent fat mass: did not have any alteration
  percent lean mass: did not have any alteration
  total body weight: did not have any alteration
[10]
  relative weight reduction compared to OVX mice on normal diet: ~30%
[10]; EchoMRI
  absolute lean body mass: no change in absolute lean body mass
  percent body fat: reduced percent body fat
  percent lean body mass: increased percent lean body mass
[10]; EchoMRI, 20 weeks HFD + 8 wks mTAC
  fat weight: significant decline in fat weight
[10]; PDE9 inhibitor treatment
  body weight decline: ~20%
Male HFD+TAC mice [11]
  total body weight / body mass: only borderline altered; also recorded: trend towards reduced body weight
  total fat mass / body fat: significant reduction in total fat mass; also recorded: decline in body fat

— patent publication US20210386743A1, “USE OF PDE9 INHIBITORS FOR TREATMENT” (The Johns Hopkins University, priority 2018, published 2021)
